ChEMBL document CHEMBL3885861, “Open TG-GATES”

Species: Rattus norvegicus
Assay: Open TG-GATES - Regimen: Single
Assay type: toxicity, organism-based, Sprague-Dawley
Set-up: regimen Single, gender Male, age 6 weeks
Conditions: in vivo, iv, 0 mg/kg, route intravenous injection, dose level Control; for APTT / Bas / Eos / Fbg / Hb / Ht / Lym / MCH / MCHC / MCV / Mono / Neu / PT / Plat / RBC / Ret / WBC: tissue Blood; for KIDNEY_L / KIDNEY_R / KIDNEY_TOTAL: tissue Kidney; for LIVER: tissue Liver; for A/G / ALP / ALT / AST / BUN / CRE / Ca / Cl / DBIL / GLC / IP / K / LDH / Na / PL / RALB / TBIL / TC / TG / TP / gamma-GTP: tissue Plasma

CN(C)c1ncnc2c1ncn2[C@@H]1O[C@H](CO)[C@@H](N)[C@H]1O [PUROMYCIN AMINONUCLEOSIDE]
TERMINAL_BW (3 h): 211.9 g | APTT (3 h): 22.7 s | Bas (3 h): 0% | Eos (3 h): 1% | Fbg (3 h): 253 mg/dL | Hb (3 h): 12.7 g/dL | Ht (3 h): 37.2% | Lym (3 h): 82.6% | MCH (3 h): 21.3 pg | MCHC (3 h): 34.1% | MCV (3 h): 62.5 fL | Mono (3 h): 2.2% | Neu (3 h): 13.6% | PT (3 h): 16.1 s | Plat (3 h): 120.5 x10_4/uL | RBC (3 h): 594.8 x10_4/ul | Ret (3 h): 7.1% | WBC (3 h): 122.5 x10_2/uL | KIDNEY_L (3 h): 0.9 g | KIDNEY_R (3 h): 0.9 g | KIDNEY_TOTAL (3 h): 1.9 g | LIVER (3 h): 9.5 g | A/G (3 h): 1.2 | ALP (3 h): 1324.8 IU/L | ALT (3 h): 32.6 IU/L | AST (3 h): 66.4 IU/L | BUN (3 h): 13.2 mg/dL | CRE (3 h): 0.2 mg/dL | Ca (3 h): 11 mg/dL | Cl (3 h): 105.2 meq/L | DBIL (3 h): 0.002 mg/dL | GLC (3 h): 191.4 mg/dL | IP (3 h): 7.7 mg/dL | K (3 h): 4.6 meq/L | LDH (3 h): 171.2 IU/L | Na (3 h): 140.4 meq/L | PL (3 h): 130.2 mg/dL | RALB (3 h): 2.9 g/dL | TBIL (3 h): 0.022 mg/dL | TC (3 h): 68 mg/dL | TG (3 h): 69 mg/dL | TP (3 h): 5.3 g/dL | gamma-GTP (3 h): 1 IU/L | TERMINAL_BW (6 h): 212.9 g | APTT (6 h): 22 s | Bas (6 h): 0% | Eos (6 h): 1% | Fbg (6 h): 301.2 mg/dL | Hb (6 h): 12.7 g/dL | Ht (6 h): 37.4% | Lym (6 h): 81.6% | MCH (6 h): 21.8 pg | MCHC (6 h): 34.1% | MCV (6 h): 64 fL | Mono (6 h): 2.6% | Neu (6 h): 14% | PT (6 h): 16 s | Plat (6 h): 122.7 x10_4/uL | RBC (6 h): 584.8 x10_4/ul | Ret (6 h): 8.2% | WBC (6 h): 100.6 x10_2/uL | KIDNEY_L (6 h): 0.9 g | KIDNEY_R (6 h): 0.9 g | KIDNEY_TOTAL (6 h): 1.9 g | LIVER (6 h): 9.4 g | A/G (6 h): 1.3 | ALP (6 h): 1216.4 IU/L | ALT (6 h): 37.8 IU/L | AST (6 h): 70 IU/L | BUN (6 h): 11.4 mg/dL | CRE (6 h): 0.2 mg/dL | Ca (6 h): 11.2 mg/dL | Cl (6 h): 106.4 meq/L | DBIL (6 h): 0 mg/dL | GLC (6 h): 188.8 mg/dL | IP (6 h): 8.3 mg/dL | K (6 h): 4.3 meq/L | LDH (6 h): 177.8 IU/L | Na (6 h): 140.4 meq/L | PL (6 h): 140.2 mg/dL | RALB (6 h): 3 g/dL | TBIL (6 h): 0.022 mg/dL | TC (6 h): 80 mg/dL | TG (6 h): 70.6 mg/dL | TP (6 h): 5.3 g/dL | gamma-GTP (6 h): 1.4 IU/L | TERMINAL_BW (9 h): 212.6 g | APTT (9 h): 21.9 s | Bas (9 h): 0% | Eos (9 h): 1% | Fbg (9 h): 314.6 mg/dL | Hb (9 h): 12.9 g/dL | Ht (9 h): 37.9% | Lym (9 h): 76.2% | MCH (9 h): 20.7 pg | MCHC (9 h): 33.9% | MCV (9 h): 61 fL | Mono (9 h): 2.8% | Neu (9 h): 19.2% | PT (9 h): 16.2 s | Plat (9 h): 126.3 x10_4/uL | RBC (9 h): 621.4 x10_4/ul | Ret (9 h): 7.1% | WBC (9 h): 94.1 x10_2/uL | KIDNEY_L (9 h): 1 g | KIDNEY_R (9 h): 1 g | KIDNEY_TOTAL (9 h): 1.9 g | LIVER (9 h): 9.1 g | A/G (9 h): 1.2 | ALP (9 h): 1259.6 IU/L | ALT (9 h): 38.2 IU/L | AST (9 h): 73.2 IU/L | BUN (9 h): 11.6 mg/dL | CRE (9 h): 0.1 mg/dL | Ca (9 h): 11.1 mg/dL | Cl (9 h): 104.4 meq/L | DBIL (9 h): 0 mg/dL | GLC (9 h): 191.6 mg/dL | IP (9 h): 9.4 mg/dL | K (9 h): 4.3 meq/L | LDH (9 h): 149.4 IU/L | Na (9 h): 140 meq/L | PL (9 h): 136.6 mg/dL | RALB (9 h): 3 g/dL | TBIL (9 h): 0.028 mg/dL | TC (9 h): 73.8 mg/dL | TG (9 h): 71.2 mg/dL | TP (9 h): 5.5 g/dL | gamma-GTP (9 h): 1.4 IU/L | TERMINAL_BW (24 h): 221.6 g | APTT (24 h): 21.5 s | Bas (24 h): 0% | Eos (24 h): 0.8% | Fbg (24 h): 281.4 mg/dL | Hb (24 h): 12.6 g/dL | Ht (24 h): 37.2% | Lym (24 h): 78.8% | MCH (24 h): 21.1 pg | MCHC (24 h): 34% | MCV (24 h): 62.1 fL | Mono (24 h): 2.8% | Neu (24 h): 17% | PT (24 h): 15.9 s | Plat (24 h): 132.3 x10_4/uL | RBC (24 h): 597.8 x10_4/ul | Ret (24 h): 7% | WBC (24 h): 96.2 x10_2/uL | KIDNEY_L (24 h): 0.9 g | KIDNEY_R (24 h): 1 g | KIDNEY_TOTAL (24 h): 1.9 g | LIVER (24 h): 10.4 g | A/G (24 h): 1.3 | ALP (24 h): 1657.8 IU/L | ALT (24 h): 47.4 IU/L | AST (24 h): 78.2 IU/L | BUN (24 h): 19.2 mg/dL | CRE (24 h): 0.2 mg/dL | Ca (24 h): 11 mg/dL | Cl (24 h): 105 meq/L | DBIL (24 h): 0 mg/dL | GLC (24 h): 186.6 mg/dL | IP (24 h): 7 mg/dL | K (24 h): 4.7 meq/L | LDH (24 h): 234.6 IU/L | Na (24 h): 140.4 meq/L | PL (24 h): 136.4 mg/dL | RALB (24 h): 3 g/dL | TBIL (24 h): 0.012 mg/dL | TC (24 h): 68.4 mg/dL | TG (24 h): 88.8 mg/dL | TP (24 h): 5.3 g/dL | gamma-GTP (24 h): 1.2 IU/L
